The results in this text go back to PubChem BioAssay (NCI).

Some test systems named below: TK-10 renal; NCI-H226 lung; MCF7 breast; SK-MEL-2 melanoma; SK-MEL-28 melanoma; COLO 205 colon; SNB-75 CNS; U251 CNS; CCRF-CEM leukemia.
Common to all, as to assay: inhibition of tumour cell growth, NCI panel, 48 h

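Each compound was tested at five concentrations against cells in 96-well plates for 48 hours. TGI is the concentration that stops growth completely.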

Consider `CCc1c[n+]2c(cc1C1=CN3c4ccccc4[C@]45CCN6C/C(=C/CO)[C@H](C[C@H]64)[C@@H]([C@@H]1O)[C@H]35)-c1[nH]c3ccccc3c1CC2`, for which the TGI with TK-10 renal, with NCI-H226 lung, with MCF7 breast, with SK-MEL-2 melanoma, in the test with SK-MEL-28 melanoma and in the test on COLO 205 colon was above 50 µM throughout. Also, the TGI with SNB-75 CNS, in the test on U251 CNS and with CCRF-CEM leukemia was above 50 µM throughout.

Turning to `CCOP(=O)(OCC)C(Cc1cn(S(=O)(=O)c2ccc(C)cc2)cn1)C(=O)O` (stereo not drawn), the TGI with TK-10 renal, with NCI-H226 lung, with MCF7 breast, in the test with SK-MEL-2 melanoma, in the test on SK-MEL-28 melanoma and with COLO 205 colon was above 100 µM in each case. Further, the TGI in the test on SNB-75 CNS, in the test with U251 CNS and with CCRF-CEM leukemia was above 100 µM in each case.

Regarding `C[C@]12CC[C@@H]3c4cc(C=O)c(OCc5ccccc5)cc4CC[C@H]3[C@@H]1CCC2OCc1ccccc1` (stereo partly drawn), the TGI with TK-10 renal, with NCI-H226 lung, in the test with MCF7 breast, in the test with SK-MEL-2 melanoma, in the test with SK-MEL-28 melanoma and in the test on COLO 205 colon was above 100 µM in each case. Further, the TGI with SNB-75 CNS, in the test with U251 CNS and with CCRF-CEM leukemia was above 100 µM in each case.

In the case of `c1ccc(C(OCCN2CC3CCC(C2)N3)c2ccccc2)cc1`, the TGI is above 100 µM in the test with TK-10 renal; above 100 µM with NCI-H226 lung; above 100 µM in the test with MCF7 breast; above 100 µM with SK-MEL-2 melanoma; above 100 µM in the test on SK-MEL-28 melanoma; 42.2 µM in the test on COLO 205 colon. For the same molecule, the TGI with SNB-75 CNS, with U251 CNS and in the test on CCRF-CEM leukemia was above 100 µM in each case.

Take `CN1C(=O)c2c(c3c4ccccc4n(C)c3c3c2c2ccccc2n3C)C1=O`: the TGI with TK-10 renal, in the test on NCI-H226 lung, in the test with MCF7 breast, in the test on SK-MEL-2 melanoma, in the test on SK-MEL-28 melanoma and in the test with COLO 205 colon was above 100 µM in each case. Further, the TGI in the test with SNB-75 CNS, in the test on U251 CNS and with CCRF-CEM leukemia was above 100 µM each time.

On to `COc1c(C(=O)CC2c3c(cc4oc(C)cc(=O)c4c3OC)OC(=N)C2c2nc3ccccc3[nH]2)c(O)c(OC)c2occc12` (stereo not drawn), for which the TGI in the test with TK-10 renal, with NCI-H226 lung, in the test on MCF7 breast, in the test with SK-MEL-2 melanoma, in the test with SK-MEL-28 melanoma and in the test with COLO 205 colon was above 100 µM in each case. In addition, the TGI with SNB-75 CNS, with U251 CNS and in the test with CCRF-CEM leukemia was above 100 µM each time.

On to `CN(C)CC(O)CNC(=O)Nc1ccccc1` (stereo not drawn), for which the TGI with TK-10 renal, with NCI-H226 lung, in the test with MCF7 breast, in the test with SK-MEL-2 melanoma, in the test with SK-MEL-28 melanoma and in the test on COLO 205 colon was above 100 µM each time. The TGI with SNB-75 CNS, in the test on U251 CNS and in the test with CCRF-CEM leukemia was above 100 µM throughout.

For the molecule `CCOC(=O)C1=C(C)NC(c2ccccc2)=C(C(=O)OCc2ccccc2)C1C#Cc1ccccc1` (stereo not drawn), the TGI with TK-10 renal, in the test with NCI-H226 lung, in the test on MCF7 breast, in the test with SK-MEL-2 melanoma, in the test on COLO 205 colon and with SNB-75 CNS was above 100 µM throughout. For the same molecule, the TGI in the test on U251 CNS and in the test on CCRF-CEM leukemia was above 100 µM throughout.

`COc1ccc2nc3c(nc2c1)C(C)(C)C=C3c1ccc(Br)cc1`: the TGI in the test with TK-10 renal, in the test on NCI-H226 lung, in the test on MCF7 breast, in the test on SK-MEL-2 melanoma, in the test with COLO 205 colon and with SNB-75 CNS was above 100 µM in each case. The TGI with U251 CNS and in the test on CCRF-CEM leukemia was above 100 µM each time.

`CCCC(CCC(=O)O)(CCC(=O)O)[N+](=O)[O-]`: the TGI in the test on TK-10 renal, with NCI-H226 lung, in the test with MCF7 breast, in the test on SK-MEL-2 melanoma, in the test with COLO 205 colon and with SNB-75 CNS was above 100 µM in each case. Besides, in the test on U251 CNS, the TGI is above 100 µM.

Consider `Cc1ccc2c(=O)cc(-c3ccccc3)[nH]c2n1`, for which the TGI in the test on TK-10 renal is above 9.36 µM; with NCI-H226 lung, 9.69 µM; with MCF7 breast, above 55 µM; with SK-MEL-2 melanoma, above 100 µM; in the test with SK-MEL-28 melanoma it was above 100 µM; in the test on SNB-75 CNS, above 100 µM. For the same molecule, the TGI in the test with U251 CNS is above 26.3 µM.

As to `Cc1[nH]c(-c2ccccc2)c(O)c1C(=O)OC1CC(C)CCC1C(C)C` (stereo not drawn), the TGI in the test on NCI-H226 lung turned out to be 30.9 µM; with MCF7 breast it was 14.9 µM; with SK-MEL-2 melanoma, 28.2 µM; in the test on SK-MEL-28 melanoma, 29.8 µM; with COLO 205 colon, 27.9 µM; with SNB-75 CNS it was 34.3 µM. Further, the TGI in the test on U251 CNS was 28.9 µM; with CCRF-CEM leukemia, 31 µM.

With `OC[C@@H](O)[C@H](O)[C@H](O)[C@@H](O)C1SCCCS1`, the TGI in the test with TK-10 renal, with NCI-H226 lung, with MCF7 breast, in the test on SK-MEL-2 melanoma, in the test on SK-MEL-28 melanoma and in the test with COLO 205 colon was above 100 µM in each case. Moreover, the TGI with SNB-75 CNS and with U251 CNS was above 100 µM throughout.

As to `CCOC(=O)/C(C(N)=O)=C(/O)c1cnccn1`, the TGI with NCI-H226 lung, with MCF7 breast, with SK-MEL-2 melanoma, with SK-MEL-28 melanoma, in the test on COLO 205 colon and in the test on SNB-75 CNS was above 100 µM each time. In addition, the TGI with U251 CNS and in the test on CCRF-CEM leukemia was above 100 µM throughout.

Turning to `CC(C)C(C=O)C(O)(C(F)(F)F)C(F)(F)F` (stereo not drawn), the TGI in the test on TK-10 renal, with NCI-H226 lung, in the test on MCF7 breast, in the test on SK-MEL-2 melanoma, in the test on SK-MEL-28 melanoma and in the test on COLO 205 colon was above 100 µM each time. Also, the TGI in the test on SNB-75 CNS and in the test with U251 CNS was above 100 µM in each case.

As to `COC(=O)[C@@]1(Cc2ccc(OC(C)=O)cc2)Cc2cc3ccccc3n2N1`, the TGI in the test with TK-10 renal was above 100 µM; in the test on NCI-H226 lung, above 100 µM; in the test with MCF7 breast, above 100 µM; with SK-MEL-2 melanoma, 52.2 µM; in the test with SK-MEL-28 melanoma, above 100 µM; with COLO 205 colon it was 92.7 µM. For the same molecule, the TGI with U251 CNS and in the test with CCRF-CEM leukemia was above 100 µM in each case.
